Tests used:
[1] = test system: A431 squamous cell carcinoma cells; experiment: MTT cell viability assay; assay type: cell-based, Human; details: for cell viability: single reagent, valproic acid 3 mM
Protocol: (§1) Human MDA-MB468, MDA-MB453 and SKBR3 breast carcinoma cells and A431 squamous cell carcinoma cells were maintained in Dulbecco's modified Eagle's medium (DMEM, BioWhittaker, Verviers, Belgium) supplemented with 10% heat inactivated fetal bovine serum (FBS), 2 mM L-glutamine, 100 units/ml penicillin, and 100 μg/ml streptomycin.
(§2) Tumor cells were seeded in 96 well plates at a density of 1×10^4 cells/well in normal growth medium. […] Control cells were grown in the absence of valproic acid or antibodies. 10 μl of 10 mg/ml 3-(4,5-dimethylthiazole-2-yl)-2,5 diphenyltetrazolium bromide (MTT) (Sigma, Deisenhofen, Germany) in PBS were added to each well and the cells were incubated for another 3 h. Cells were lysed by the addition of 90 μl of lysis buffer (20% SDS in 50% dimethyl formamide, pH 4.7). After solubilization of the formazan product, the absorption at 590 nm was determined in a microplate reader (Dynatech, Denkendorf, Germany) and the relative amount of viable cells in comparison to cells cultured without the addition of valproic acid or antibodies was calculated.
(§3) Human SKBR3 breast carcinoma cells, A431 squamous cell carcinoma cells and SKOV3 ovarian carcinoma cells were maintained in Dulbecco's modified Eagle's medium (DMEM, BioWhittaker, Verviers, Belgium) supplemented with 10% heat-inactivated fetal bovine serum (FBS), 2 mM L-glutamine, 100 units/ml penicillin, and 100 μg/ml streptomycin.
(§4) Tumor cells were seeded in 96 well plates at a density of 1×10^4 cells/well in normal growth medium. […] Renca-lacZ/ErbB2, Renca-lacZ/EGFR and Renca-lacZ/EGFRvIII cells were treated for 40 h with valproic acid at a final concentration of 1 mM, or 10 ng/ml of the recombinant anti-ErbB2 single chain antibody-toxin scFv(FRP5)-ETA, or 1 ng/ml of the recombinant anti-EGF receptor single chain antibody-toxin scFv(14E1)-ETA, or a combination of valproic acid with either scFv(FRP5)-ETA or scFv(14E1)-ETA at the same concentrations. Control cells were grown in the absence of valproic acid or antibody-toxins. Ten μl of 10 mg/ml 3-(4,5-dimethylthiazole-2-yl)-2,5 diphenyltetrazolium bromide (MTT) (Sigma, Deisenhofen, Germany) in PBS were added to each well and the cells were incubated for another 3 h. Cells were lysed by the addition of 90 μl of lysis buffer (20% SDS in 50% dimethyl formamide, pH 4.7). After solubilization of the formazan product, the absorption at 590 nm was determined in a microplate reader (Dynatech, Denkendorf, Germany) and the relative amount of viable cells in comparison to cells cultured without the addition of valproic acid or antibody-toxins was calculated.

[2] = test system: SKBR3 breast carcinoma cells; experiment: MTT cell viability assay; assay type: cell-based, Human; details: for cell viability: single reagent, valproic acid 3 mM
Protocol: as §1, §2, §3, §4

[3] = test system: SKOV3 ovarian carcinoma cells; experiment: MTT cell viability assay; assay type: cell-based, Human; details: 40 h
Protocol: as §3
Tumor cells were seeded in 96 well plates at a density of 1×10^4 cells/well in normal growth medium. SKBR3, A431 and SKOV3 cells were treated for 40 h with valproic acid at a final concentration of 3 mM, or 10 ng/ml of the recombinant anti-ErbB2 single chain antibody-toxin scFv(FRP5)-ETA (Wels et al., Cancer Res. 52: 6310-6317, 1992), or 10 ng/ml of the recombinant anti-EGF receptor single chain antibody-toxin scFv(14E1)-ETA (Schmidt et al., Brit. J. Cancer 75: 1575-1584, 1997), or a combination of valproic acid with either scFv(FRP5)-ETA or scFv(14E1)-ETA at the same concentrations. […] After solubilization of the formazan product, the absorption at 590 nm was determined in a microplate reader (Dynatech, Denkendorf, Germany) and the relative amount of viable cells in comparison to cells cultured without the addition of valproic acid or antibody-toxins was calculated.

[4] = test system: Kasumi-1 cells; experiment: viability, cell cycle and myeloid differentiation (morphology, NBT dye reduction); assay type: cell-based, human
Protocol: Cell numbers were evaluated and quantified by direct cell counting (trypan blue dye exclusion method) using a hematocytometer chamber and light microscopy. Morphological examination was performed by Wright-Giemsa stained cytospins; nitroblue tetrazolium (NBT) dye reduction assay, respectively. Each point represents the mean of a set of data determined in triplicate (Example 15).
Cases were classified according to the French-American-British (FAB) classification (Bennett et al., Ann Intern Med 103, 1985). Cytogenetic analysis and RT-PCR tests were performed to rule out the presence of the APL associated fusion genes according to standard methods as described (Mandelli et al., Blood 90, 1997; Mancini et al., Br J Haematol. 91, 1995; Grimwade et al., Blood 90, 1999).

[5] = 3 mM valproic acid + 10 ng/ml scFv(14E1)-ETA, 40 h
[6] = 3 mM valproic acid + 10 ng/ml scFv(FRP5)-ETA, 40 h
[7] = 40 h, scFv(FRP5)-ETA 10 ng/ml, scFv(14E1)-ETA 10 ng/ml

With `CCCC(CCC)C(=O)O` [VPA, 2-propylpentanoic acid] the “cell viability, combination treatment” value ([1]; 3 mM VPA + 2 μg/ml c225, 70 h) was “synergistic reduction of cell viability”, the “cell viability, combination treatment” value [1, 5] was “pronounced additive therapeutic effect” and the “cell viability, combination treatment” value [1, 6] was “pronounced additive therapeutic effect”. The cell viability [1, 7] was “inhibit the viability”, the cell viability ([1]; 70 h, c225 2 μg/ml) was “inhibit the viability” and the “cell viability, combination treatment” value [2, 5] was “pronounced additive therapeutic effect”. The “cell viability, combination treatment” value [2, 6] was “pronounced additive therapeutic effect”, the “cell viability, combination treatment” value ([2]; 3 mM valproic acid + 2 μg/ml Herceptin, 70 h) was “pronounced additive therapeutic effect” and the cell viability [2, 7] was “inhibit the viability”. For the same molecule, the cell viability ([2]; 70 h, Herceptin 2 μg/ml) was “inhibit the viability”, the “cell viability, combination treatment” value ([3]; 3 mM valproic acid + 10 ng/ml scFv(FRP5)-ETA) was “pronounced additive therapeutic effect” and the cell viability ([3]; single reagent, valproic acid 3 mM, scFv(FRP5)-ETA 10 ng/ml) was “inhibit the viability”. The myeloid differentiation ([4]; VPA as a single agent) was “partial myeloid differentiation”, the myeloid differentiation ([4]; VPA in combination with RA) was “complete and thus synergistic myeloid differentiation” and the “positive cells in the NBT dye reduction assay” value ([4]; VPA in combination with RA) was “up to 65%”. The viability ([4]; VPA in combination with RA) was “additive effect” and the cell cycle analysis ([4]; combination of VPA plus RA compared to VPA or RA alone) was “enhanced cell cycle shift into G1 arrest”.
